Experimental data reported in patent US6706664B1, “Benzoxazole compounds, process for the preparation thereof and herbicides” (UBE Industries, Ltd., priority 1999, dated 2004).

Columns and labels:
Set-up in all cases: key: 0: normal development; 1: Less damaged; 2: Slightly damaged; 3: Moderately damaged; 4: Severely damaged; 5: All killed
common lambsquartes [1] = assay: Soil treatment test for upland field; assay type: in vivo, Chenopodium album; conditions: 500 g/ha, glass house 25° C., 3 weeks
Outline: (§1)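 Visual 0–5 damage rating recorded 3 weeks after a pre-emergence soil spray of 500 g/ha on seeded Ube alluvial soil, with plants held in a glasshouse near 25° C.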

blackgrass [2] = assay: Soil treatment test for upland field; assay type: in vivo, Alopecurus aegualis; conditions: 500 g/ha, glass house 25° C., 3 weeks
Outline: as §1

monochoria = assay: Herbicidal test for paddy field; assay type: in vivo, Monochoria vaginalis; conditions: paddy field pot, 500 g/ha dropwise at 1.5 leaf stage of barnyardgrass, 3 weeks, rank vs non-treated
Outline: (§2)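 Scores run on a six-point scale from 0 for normal development to 5 for all plants killed, judged against non-treated pots. Plants were grown in Ube soil under 3 cm of standing water and treated by pipet with 500 g/ha of the compound once barnyardgrass had 1.5 leaves. Assessment followed 3 weeks in a glasshouse averaging 25° C.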

wheat [3] = assay: Foliar spread test for upland field; assay type: in vivo; conditions: foliar spray 500 ppm, 3 weeks, rank vs non-treated
Source text: (§3) (0: normal development, 1: Less damaged, 2: Slightly damaged, 3: Moderately damaged, 4: Severely damaged, 5: All killed).
(§4) Wagner pots, each having an area of 1/5000 are, were packed with volcanic ash soil and then each seed of corn, soybean, cotton, wheat, solgum, sugar beat, Large crabgrass, barnyardgrass, green foxtail, blackgrass, annual bluegrass, common lambsquartes, livid amaranth, velvetleaf and morning glory was planted, covered with soil and grown in a glass house at an average temperature of […] for about 2 weeks.
(§5) Each wettable powder of the desired compounds (I) shown in Table 1 prepared in accordance with Example 2 was diluted to 500 ppm with water containing a surfactant (0.5%) and then uniformly sprayed on the above respective plants.
(§6) After these plants were controlled in a glass house at an average temperature of 25° C. for 3 weeks, the herbicidal effects thereof were investigated.
(§7) The herbicidal effects were evaluated according to the evaluation method described in the above (1).

cotton [4] = assay: Foliar spread test for upland field; assay type: in vivo; conditions: foliar spray 500 ppm, 3 weeks, rank vs non-treated
Source text: as §3, §4, §5, §6, §7

corn [5] = assay: Foliar spread test for upland field; assay type: in vivo; conditions: foliar spray 500 ppm, 3 weeks, rank vs non-treated
Source text: as §3, §4, §5, §6, §7

sugar beat [6] = assay: Foliar spread test for upland field; assay type: in vivo; conditions: foliar spray 500 ppm, 3 weeks, rank vs non-treated
Source text: as §3, §4, §5, §6, §7

solgum [7] = assay: Foliar spread test for upland field; assay type: in vivo; conditions: foliar spray 500 ppm, 3 weeks, rank vs non-treated
Source text: as §3, §4, §5, §6, §7

Large crabgrass [8] = assay: Soil treatment test for upland field; assay type: in vivo, Digitaria adscendens; conditions: 500 g/ha, glass house 25° C., 3 weeks
Outline: as §1

green foxtail [9] = assay: Foliar spread test for upland field; assay type: in vivo, Setaria viridis; conditions: foliar spray 500 ppm, 3 weeks, rank vs non-treated
Source text: as §3, §4, §5, §6, §7

common lambsquartes [10] = assay: Foliar spread test for upland field; assay type: in vivo, Chenopodium album; conditions: foliar spray 500 ppm, 3 weeks, rank vs non-treated
Source text: as §3, §4, §5, §6, §7

green foxtail [11] = assay: Soil treatment test for upland field; assay type: in vivo, Setaria viridis; conditions: 500 g/ha, glass house 25° C., 3 weeks
Outline: as §1

wheat [12] = assay: Soil treatment test for upland field; assay type: in vivo; conditions: 500 g/ha, glass house 25° C., 3 weeks
Outline: as §1

cotton [13] = assay: Soil treatment test for upland field; assay type: in vivo; conditions: 500 g/ha, glass house 25° C., 3 weeks
Outline: as §1

corn [14] = assay: Soil treatment test for upland field; assay type: in vivo; conditions: 500 g/ha, glass house 25° C., 3 weeks
Outline: as §1

sugar beat [15] = assay: Soil treatment test for upland field; assay type: in vivo; conditions: 500 g/ha, glass house 25° C., 3 weeks
Outline: as §1

soybean [16] = assay: Soil treatment test for upland field; assay type: in vivo; conditions: 500 g/ha, glass house 25° C., 3 weeks
Outline: as §1

solgum [17] = assay: Soil treatment test for upland field; assay type: in vivo; conditions: 500 g/ha, glass house 25° C., 3 weeks
Outline: as §1

barnyardgrass [18] = assay: Herbicidal test for paddy field; assay type: in vivo, Echinochloa crusgalli; conditions: paddy field pot, 500 g/ha dropwise at 1.5 leaf stage of barnyardgrass, 3 weeks, rank vs non-treated
Outline: as §2

livid amaranth [19] = assay: Soil treatment test for upland field; assay type: in vivo, Amaranthus lividus; conditions: 500 g/ha, glass house 25° C., 3 weeks
Outline: as §1

livid amaranth [20] = assay: Foliar spread test for upland field; assay type: in vivo, Amaranthus lividus; conditions: foliar spray 500 ppm, 3 weeks, rank vs non-treated
Source text: as §3, §4, §5, §6, §7

Large crabgrass [21] = assay: Foliar spread test for upland field; assay type: in vivo, Digitaria adscendens; conditions: foliar spray 500 ppm, 3 weeks, rank vs non-treated
Source text: as §3, §4, §5, §6, §7

velvetleaf [22] = assay: Soil treatment test for upland field; assay type: in vivo, Abutilon theophrasti; conditions: 500 g/ha, glass house 25° C., 3 weeks
Outline: as §1

annual bluegrass [23] = assay: Soil treatment test for upland field; assay type: in vivo, Poa annua; conditions: 500 g/ha, glass house 25° C., 3 weeks
Outline: as §1

barnyardgrass [24] = assay: Soil treatment test for upland field; assay type: in vivo, Echinochloa crusgalli; conditions: 500 g/ha, glass house 25° C., 3 weeks
Outline: as §1

velvetleaf [25] = assay: Foliar spread test for upland field; assay type: in vivo, Abutilon theophrasti; conditions: foliar spray 500 ppm, 3 weeks, rank vs non-treated
Source text: as §3, §4, §5, §6, §7

blackgrass [26] = assay: Foliar spread test for upland field; assay type: in vivo, Alopecurus aegualis; conditions: foliar spray 500 ppm, 3 weeks, rank vs non-treated
Source text: as §3, §4, §5, §6, §7

annual bluegrass [27] = assay: Foliar spread test for upland field; assay type: in vivo, Poa annua; conditions: foliar spray 500 ppm, 3 weeks, rank vs non-treated
Source text: as §3, §4, §5, §6, §7

morning glory = assay: Foliar spread test for upland field; assay type: in vivo, Ipomoea spps.; conditions: foliar spray 500 ppm, 3 weeks, rank vs non-treated
Source text: as §3, §4, §5, §6, §7

bulrush = assay: Herbicidal test for paddy field; assay type: in vivo, Scrips juncoides; conditions: paddy field pot, 500 g/ha dropwise at 1.5 leaf stage of barnyardgrass, 3 weeks, rank vs non-treated
Outline: as §2

young rice plant = assay: Herbicidal test for paddy field; assay type: in vivo; conditions: paddy field pot, 500 g/ha dropwise at 1.5 leaf stage of barnyardgrass, 3 weeks, rank vs non-treated
Outline: as §2

soybean [28] = assay: Foliar spread test for upland field; assay type: in vivo; conditions: foliar spray 500 ppm, 3 weeks, rank vs non-treated
Source text: as §3, §4, §5, §6, §7

Structure (SMILES) | Effects Common lambsquarters (common lambsquartes [1]) | Effects Blackgrass (blackgrass [2]) | Effects Wheat (wheat [3]) | Effects Corn (corn [5]) | Effects Sugar beat (sugar beat [6]) | Effects Solgum (solgum [7]) | Effects Large crabgrass (Large crabgrass [8]) | Effects Green foxtail (green foxtail [9]) | Effects Common lambsquarters (common lambsquartes [10]) | Effects Green foxtail (green foxtail [11]) | Effects Wheat (wheat [12]) | Effects Cotton (cotton [13]) | Effects Corn (corn [14]) | Effects Sugar beat (sugar beat [15]) | Effects Soybean (soybean [16]) | Effects Solgum (solgum [17]) | Effects Livid amaranth (livid amaranth [19]) | Effects Livid amaranth (livid amaranth [20]) | Effects Velvetleaf (velvetleaf [22]) | Effects Velvetleaf (velvetleaf [25]) | also measured
CCC(Oc1ccc(F)c(C(F)(F)F)c1)c1nc2cc(F)c(Cl)cc2o1 (centres unmarked) [Compound 493] | 4 | 4 | 1 | 2 | 5 | 1 | 5 | 5 | 5 | 5 | 2 | 1 | 2 | 5 | 2 | 2 | 5 | 5 | 5 | 2 | Effect Monochoria (monochoria): 5; Effects Cotton (cotton [4]): 2; Effect Barnyardgrass (barnyardgrass [18]): 5; Effects Large crabgrass (Large crabgrass [21]): 2; Effects Annual bluegrass (annual bluegrass [23]): 5; Effects Barnyardgrass (barnyardgrass [24]): 4
CCC(Oc1cccc(C(F)(F)F)c1)c1nc2cc(F)c(Cl)cc2o1 (centres unmarked) [Compound 496] | 5 | 5 | 2 | 2 | 5 | 2 | 5 | 4 | 5 | 5 | 1 | 1 | 0 | 5 | 0 | 1 | 5 | 5 | 5 | 3 | Effects Blackgrass (blackgrass [26]): 3; Effects Large crabgrass (Large crabgrass [21]): 3; Effects Annual bluegrass (annual bluegrass [23]): 5; Effects Barnyardgrass (barnyardgrass [24]): 3; Effects Annual bluegrass (annual bluegrass [27]): 2
CCC(Oc1cccc(C#N)c1)c1nc2cc(S(C)(=O)=O)c(C)cc2o1 (centres unmarked) [Compound 491] |  |  | 1 | 1 | 4 | 1 |  | 2 | 5 |  |  |  |  |  |  |  |  | 4 |  | 3 | Effects Morning glory (morning glory): 3; Effect Monochoria (monochoria): 5; Effects Cotton (cotton [4]): 2; Effect Bulrush (bulrush): 3; Effect Young rice plant (young rice plant): 0
CCCC(Oc1ccc(F)c(C(F)(F)F)c1)c1nc2cc(C#N)c(C#N)cc2o1 (centres unmarked) [Compound 318] | 5 | 2 | 1 | 1 | 5 | 1 | 2 | 5 | 3 | 4 | 0 | 0 | 0 | 5 | 0 | 0 | 5 | 5 | 5 | 2 | Effects Soybean (soybean [28]): 2; Effects Annual bluegrass (annual bluegrass [23]): 4
